Data as given in patent US8148388B2, “2,4 (4,6) pyrimidine derivatives” (Janssen Pharmaceutica, N.V., priority 2004, dated 2012).

Legend:
Type in all cases: biochemical
GSK3B (h) = GSK3B (h) (Homo sapiens, UniProt P49841); test: GSK3β human kinase assay (glass-fiber filter); conditions: test concentration of 10^−6M; for inhibition at 1 µM: read-out: C8 score (inhibition of GSK3β human)
Protocol: The in vitro inhibition of a panel of kinases was assessed using either the glass-fiber filter technology as described by Davies, S. P. et al., Biochem J. (2000), 351; p. 95-105.
(§1) In the glass-fiber filter technology the activity of the kinase of interest is measured using an appropriate substrate that is incubated with the aforementioned kinase protein in the presence of (^33P) radiolabeled ATP. (^33P) Phosphorylation of the substrate is subsequently measured as radioactivity bound on a glass fiber-filter.
(§2) All kinases are pre-diluted to a 10× working concentration prior to addition into the assay. The composition of the dilution buffer for each kinase is detailed below.
In a final reaction volume of 25 μl, GSK3B (h) (5-10 mU) is incubated with 8 mM MOPS pH 7.0, 0.2 mM EDTA, 20 μM […](p)EDEEE (phospho GS2 peptide), 10 mM MgAcetate and [γ-^33P-ATP] (specific activity approx. 500 cpm/pmol, concentration as required). The reaction is initiated by the addition of the MgATP mix. After incubation for 40 minutes at room temperature, the reaction is stopped by the addition of 5 μl of a 3% phosphoric acid solution. 10 μl of the reaction is then spotted onto a P30 filtermat and washed three times for 5 minutes in 50 mM phosphoric acid and once in methanol prior to drying and scintillation counting.

EGFR (h) = EGFR (h) (Homo sapiens, UniProt P00533); test: EGFR human kinase assay (glass-fiber filter); conditions: test concentration of 10^−6M
Protocol: as §1, §2
(§3) In a final reaction volume of 25 μl, EGFR (h) (5-10 mU) is incubated with 8 mM MOPS pH 7.0, 0.2 mM EDTA, 10 mM MnCl2, 0.1 mg/ml poly(Glu, Tyr) 4:1, 10 mM MgAcetate and [γ-^33P-ATP] (specific activity approx. 500 cpm/pmol, concentration as required). The reaction is initiated by the addition of the MgATP mix. After incubation for 40 minutes at room temperature, the reaction is stopped by the addition of 5 μl of a 3% phosphoric acid solution. 10 μl of the reaction is then spotted onto a Filtermat A and washed three times for 5 minutes in 75 mM phosphoric acid and once in methanol prior to drying and scintillation counting.

Lck (h) = Lck (h) (Homo sapiens, UniProt P06239); test: Lck human kinase assay (glass-fiber filter); conditions: test concentration of 10^−6M; for inhibition at 1 µM: read-out: C9 score (inhibition of Lck human)
Outline: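 Kinase activity measured as transfer of (^33P) from radiolabeled MgATP to substrate, captured on P30 glass-fiber filtermat, washed in 75 mM phosphoric acid and methanol, then scintillation counted.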

Fes (h) = Fes (h) (Homo sapiens, UniProt P07332); test: Fes human kinase assay (glass-fiber filter); conditions: test concentration of 10^−6M; for inhibition at 1 µM: read-out: C4 score (inhibition of Fes human)
Protocol: as §1, §2
as §3, with “Fes” for “EGFR”, “EDTA,” for “EDTA, 10 mM MnCl2,”

cSRC (h) = cSRC (h) (Homo sapiens, UniProt P12931); test: cSRC human kinase assay (glass-fiber filter); conditions: test concentration of 10^−6M; for inhibition at 1 µM: read-out: C3 score (inhibition of cSRC human)
Outline: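 Radiometric assay: kinase and substrate are incubated with [33P]ATP, with the reaction started by MgATP mix. The reaction is spotted on P30 filtermat, washed in 75 mM phosphoric acid and methanol, and the bound 33P is measured by scintillation counting.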

Flt3 (h) = Flt3 (h) (Homo sapiens, UniProt P36888); test: Flt3 human kinase assay (glass-fiber filter); conditions: test concentration of 10^−6M; for inhibition at 1 µM: read-out: C6 score (inhibition of Flt3 human)
Outline: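 Human Flt3 (5-10 mU) with 50 μM peptide substrate in 8 mM MOPS pH 7.0, 0.2 mM EDTA, 10 mM Mg acetate and [γ-33P]ATP (concentration as required), 40 min at room temperature. Reaction stopped with phosphoric acid; substrate 33P incorporation counted on P30 glass-fiber filter.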

Abl (h) = Abl (h) (Homo sapiens, UniProt P00519); test: Abl human kinase assay (glass-fiber filter); conditions: test concentration of 10^−6M; for inhibition at 1 µM: read-out: C1 score (inhibition of Abl human)
Lyn (h) = Lyn (h) (Homo sapiens, UniProt P07948); test: Lyn human kinase assay (glass-fiber filter); conditions: test concentration of 10^−6M; for inhibition at 1 µM: read-out: C10 score (inhibition of Lyn human)
Outline: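 Human Lyn (5-10 mU) phosphorylating poly(Glu,Tyr) 4:1 at 0.1 mg/ml with [γ-33P]ATP (concentration as required) in 50 mM Tris pH 7.5, 10 mM Mg acetate, 40 min at room temperature. Stopped with phosphoric acid; substrate-bound radioactivity counted on glass-fibre filter.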

Yes (h) = Yes (h) (Homo sapiens, UniProt P07947); test: Yes human kinase assay (glass-fiber filter); conditions: test concentration of 10^−6M; for inhibition at 1 µM: read-out: C11 score (inhibition of Yes human)
Outline: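 Yes (h) (5-10 mU) with 0.1 mg/ml poly(Glu, Tyr) 4:1 in 8 mM MOPS pH 7.0, 0.2 mM EDTA, 10 mM MgAcetate and [γ-^33P-ATP], 40 minutes at room temperature. Stopped with phosphoric acid; substrate-bound ^33P counted on glass-fiber filter by scintillation.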

Fms (h) = Fms (h) (Homo sapiens, UniProt P07333); test: Fms human kinase assay (glass-fiber filter); conditions: test concentration of 10^−6M; for inhibition at 1 µM: read-out: C7 score (inhibition of Fms human)
Outline: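 Radiometric filter-binding assay: Fms (5-10 mU) with 250 μM peptide substrate and [γ-33P]ATP in 8 mM MOPS pH 7.0, 10 mM Mg acetate, 40 min at room temperature. Reaction stopped with phosphoric acid; substrate-bound 33P counted on P30 filtermat.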

CSK (h) = CSK (h) (Homo sapiens, UniProt P41240); test: CSK human kinase assay (glass-fiber filter); conditions: test concentration of 10^−6M; for inhibition at 1 µM: read-out: C2 score (inhibition of CSK human)
Protocol: as §1, §2
In a final reaction volume of 25 μl, CSK (h) (5-10 mU) is incubated with 50 mM Tris pH 7.5, 0.1 mM EGTA, 0.1 mM Na3VO4, 0.1% β-mercaptoethanol, 0.1 mg/ml poly(Glu, Tyr) 4:1, 10 mM MnCl2, 10 mM MgAcetate and [γ-^33P-ATP] (specific activity approx. 500 cpm/pmol, concentration as required). The reaction is initiated by the addition of the MgATP mix. After incubation for 40 minutes at room temperature, the reaction is stopped by the addition of 5 μl of a 3% phosphoric acid solution. 10 μl of the reaction is then spotted onto a Filtermat A and washed three times for 5 minutes in 75 mM phosphoric acid and once in methanol prior to drying and scintillation counting.

Abl (h), sequence (P00519 whole entry): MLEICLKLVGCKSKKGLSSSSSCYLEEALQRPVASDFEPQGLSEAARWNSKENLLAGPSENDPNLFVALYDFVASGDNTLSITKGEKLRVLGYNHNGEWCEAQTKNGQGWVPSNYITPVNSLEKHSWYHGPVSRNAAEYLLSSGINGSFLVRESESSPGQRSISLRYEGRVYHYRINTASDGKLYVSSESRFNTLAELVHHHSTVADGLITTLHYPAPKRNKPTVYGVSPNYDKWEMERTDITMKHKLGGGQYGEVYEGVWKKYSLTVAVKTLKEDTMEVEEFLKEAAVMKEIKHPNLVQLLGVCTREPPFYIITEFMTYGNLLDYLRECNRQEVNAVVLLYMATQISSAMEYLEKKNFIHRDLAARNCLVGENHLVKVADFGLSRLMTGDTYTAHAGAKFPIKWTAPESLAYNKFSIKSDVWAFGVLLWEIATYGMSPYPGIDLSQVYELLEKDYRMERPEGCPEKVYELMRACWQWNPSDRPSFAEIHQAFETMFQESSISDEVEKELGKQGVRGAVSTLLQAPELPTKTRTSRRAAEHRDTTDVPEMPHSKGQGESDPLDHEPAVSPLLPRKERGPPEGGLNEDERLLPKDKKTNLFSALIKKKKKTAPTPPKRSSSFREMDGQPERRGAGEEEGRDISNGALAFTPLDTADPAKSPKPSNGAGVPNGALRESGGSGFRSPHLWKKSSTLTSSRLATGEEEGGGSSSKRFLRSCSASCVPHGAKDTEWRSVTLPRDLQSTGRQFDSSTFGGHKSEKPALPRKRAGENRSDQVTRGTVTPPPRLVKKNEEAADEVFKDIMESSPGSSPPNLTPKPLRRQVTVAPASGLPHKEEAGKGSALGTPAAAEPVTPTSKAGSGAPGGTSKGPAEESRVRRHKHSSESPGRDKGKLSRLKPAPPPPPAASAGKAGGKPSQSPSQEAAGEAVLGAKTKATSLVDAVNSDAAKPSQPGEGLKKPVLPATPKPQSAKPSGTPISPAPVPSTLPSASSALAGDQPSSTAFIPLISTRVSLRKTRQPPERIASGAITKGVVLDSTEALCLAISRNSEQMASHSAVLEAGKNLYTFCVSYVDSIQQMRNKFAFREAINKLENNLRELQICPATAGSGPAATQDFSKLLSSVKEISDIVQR
Yes (h), sequence (P07947 whole entry): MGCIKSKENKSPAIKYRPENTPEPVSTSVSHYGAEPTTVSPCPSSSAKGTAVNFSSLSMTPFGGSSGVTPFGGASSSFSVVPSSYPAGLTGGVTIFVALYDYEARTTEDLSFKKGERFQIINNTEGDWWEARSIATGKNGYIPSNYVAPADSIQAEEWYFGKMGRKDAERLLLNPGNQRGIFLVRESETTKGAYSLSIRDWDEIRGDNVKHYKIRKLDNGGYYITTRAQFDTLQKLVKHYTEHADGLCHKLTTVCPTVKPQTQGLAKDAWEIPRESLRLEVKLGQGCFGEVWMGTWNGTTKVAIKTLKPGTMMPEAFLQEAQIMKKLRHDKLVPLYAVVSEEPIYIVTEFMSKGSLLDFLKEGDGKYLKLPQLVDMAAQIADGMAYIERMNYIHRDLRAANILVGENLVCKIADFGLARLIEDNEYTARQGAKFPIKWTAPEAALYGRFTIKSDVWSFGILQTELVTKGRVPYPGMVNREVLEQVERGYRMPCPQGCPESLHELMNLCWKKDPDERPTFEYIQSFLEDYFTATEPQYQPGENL
Fes (h), sequence (P07332 whole entry): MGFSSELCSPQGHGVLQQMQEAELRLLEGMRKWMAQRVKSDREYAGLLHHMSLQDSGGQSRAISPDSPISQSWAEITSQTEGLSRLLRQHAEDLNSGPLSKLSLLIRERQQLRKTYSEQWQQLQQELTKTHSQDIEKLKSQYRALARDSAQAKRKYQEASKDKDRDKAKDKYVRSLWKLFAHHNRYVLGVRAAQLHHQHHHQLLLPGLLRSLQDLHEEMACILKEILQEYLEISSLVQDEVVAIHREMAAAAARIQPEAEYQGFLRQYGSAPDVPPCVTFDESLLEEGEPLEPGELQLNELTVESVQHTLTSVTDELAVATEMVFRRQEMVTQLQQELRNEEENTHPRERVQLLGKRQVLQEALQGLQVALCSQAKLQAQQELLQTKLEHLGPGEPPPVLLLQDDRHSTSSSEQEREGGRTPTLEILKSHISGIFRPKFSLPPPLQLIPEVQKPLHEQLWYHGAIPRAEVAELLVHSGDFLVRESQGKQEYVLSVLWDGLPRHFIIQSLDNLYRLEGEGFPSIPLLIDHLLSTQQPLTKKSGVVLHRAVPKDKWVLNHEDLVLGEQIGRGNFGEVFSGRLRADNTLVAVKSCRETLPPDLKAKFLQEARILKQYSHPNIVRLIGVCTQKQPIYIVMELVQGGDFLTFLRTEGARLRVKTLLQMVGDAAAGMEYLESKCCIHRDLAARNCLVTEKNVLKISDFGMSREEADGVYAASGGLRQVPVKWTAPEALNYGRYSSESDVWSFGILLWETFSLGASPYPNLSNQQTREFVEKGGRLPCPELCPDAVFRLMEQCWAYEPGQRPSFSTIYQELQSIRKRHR
GSK3B (h), sequence (P49841 whole entry): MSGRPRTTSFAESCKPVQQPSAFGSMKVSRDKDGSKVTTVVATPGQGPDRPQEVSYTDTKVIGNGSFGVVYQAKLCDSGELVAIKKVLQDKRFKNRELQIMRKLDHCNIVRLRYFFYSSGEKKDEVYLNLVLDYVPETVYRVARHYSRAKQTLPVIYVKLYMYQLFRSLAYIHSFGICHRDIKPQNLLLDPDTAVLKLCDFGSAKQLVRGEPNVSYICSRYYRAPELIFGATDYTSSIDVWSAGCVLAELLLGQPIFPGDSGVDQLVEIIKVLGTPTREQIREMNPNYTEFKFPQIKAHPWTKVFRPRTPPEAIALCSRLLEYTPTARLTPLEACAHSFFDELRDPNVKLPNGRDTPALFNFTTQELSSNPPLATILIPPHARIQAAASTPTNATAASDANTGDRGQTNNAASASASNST
Flt3 (h), sequence (P36888 27-993): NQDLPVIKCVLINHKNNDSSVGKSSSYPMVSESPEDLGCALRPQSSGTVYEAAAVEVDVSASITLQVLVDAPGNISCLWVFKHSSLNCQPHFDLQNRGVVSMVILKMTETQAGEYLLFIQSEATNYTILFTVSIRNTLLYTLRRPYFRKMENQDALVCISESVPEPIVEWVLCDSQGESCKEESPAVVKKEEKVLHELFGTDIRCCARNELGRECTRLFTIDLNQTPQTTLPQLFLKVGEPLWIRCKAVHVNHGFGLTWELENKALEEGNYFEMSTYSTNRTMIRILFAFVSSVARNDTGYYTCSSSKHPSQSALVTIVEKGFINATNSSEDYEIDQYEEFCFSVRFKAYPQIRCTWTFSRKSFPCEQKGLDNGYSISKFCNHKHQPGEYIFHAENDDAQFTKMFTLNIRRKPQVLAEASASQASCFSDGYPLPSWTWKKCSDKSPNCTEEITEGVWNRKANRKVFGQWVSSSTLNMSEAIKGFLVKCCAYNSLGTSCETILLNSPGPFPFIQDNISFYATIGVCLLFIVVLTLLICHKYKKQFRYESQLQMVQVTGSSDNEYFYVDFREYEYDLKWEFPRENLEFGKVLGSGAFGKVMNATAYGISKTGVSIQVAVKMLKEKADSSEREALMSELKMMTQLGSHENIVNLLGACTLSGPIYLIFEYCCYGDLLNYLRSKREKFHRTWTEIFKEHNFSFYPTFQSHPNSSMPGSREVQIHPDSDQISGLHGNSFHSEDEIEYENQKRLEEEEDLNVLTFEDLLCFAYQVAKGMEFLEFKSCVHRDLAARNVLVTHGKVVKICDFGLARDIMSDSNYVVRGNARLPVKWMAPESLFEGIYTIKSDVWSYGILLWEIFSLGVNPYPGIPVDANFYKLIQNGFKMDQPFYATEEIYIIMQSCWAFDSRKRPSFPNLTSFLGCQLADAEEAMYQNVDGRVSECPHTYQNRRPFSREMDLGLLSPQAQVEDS
Lck (h), sequence (P06239 whole entry): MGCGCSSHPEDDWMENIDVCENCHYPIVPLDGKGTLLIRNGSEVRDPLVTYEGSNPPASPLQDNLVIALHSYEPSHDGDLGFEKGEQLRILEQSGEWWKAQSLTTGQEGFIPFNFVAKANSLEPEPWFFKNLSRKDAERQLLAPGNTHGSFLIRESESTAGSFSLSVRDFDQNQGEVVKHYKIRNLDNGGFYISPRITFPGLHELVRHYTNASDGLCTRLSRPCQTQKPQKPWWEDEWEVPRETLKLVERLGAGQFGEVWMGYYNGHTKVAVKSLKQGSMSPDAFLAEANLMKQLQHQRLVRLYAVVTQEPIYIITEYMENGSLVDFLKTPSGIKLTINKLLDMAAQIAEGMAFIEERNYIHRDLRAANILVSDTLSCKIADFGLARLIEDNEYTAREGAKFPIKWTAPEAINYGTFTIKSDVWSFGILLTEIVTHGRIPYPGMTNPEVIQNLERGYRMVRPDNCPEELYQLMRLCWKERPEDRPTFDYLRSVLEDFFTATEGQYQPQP
Lyn (h), sequence (P07948 whole entry): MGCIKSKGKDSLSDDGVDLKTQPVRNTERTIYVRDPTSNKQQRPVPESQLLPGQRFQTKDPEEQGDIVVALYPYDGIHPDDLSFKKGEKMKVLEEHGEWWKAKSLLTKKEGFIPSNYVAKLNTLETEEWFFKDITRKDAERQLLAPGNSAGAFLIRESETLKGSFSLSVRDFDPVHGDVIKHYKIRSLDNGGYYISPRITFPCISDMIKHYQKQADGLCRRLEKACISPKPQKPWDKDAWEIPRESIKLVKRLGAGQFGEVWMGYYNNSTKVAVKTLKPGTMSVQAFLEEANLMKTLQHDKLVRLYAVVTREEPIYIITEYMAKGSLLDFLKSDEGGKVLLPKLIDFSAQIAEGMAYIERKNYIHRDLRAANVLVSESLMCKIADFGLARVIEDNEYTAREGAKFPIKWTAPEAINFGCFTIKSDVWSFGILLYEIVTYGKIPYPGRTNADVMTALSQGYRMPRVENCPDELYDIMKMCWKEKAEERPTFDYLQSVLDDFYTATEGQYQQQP

Row | inhibition at 1 µM (cSRC (h)) | inhibition at 1 µM (Flt3 (h)) | inhibition at 1 µM (Fms (h)) | inhibition at 1 µM (Yes (h)) | inhibition at 1 µM (CSK (h)) | Compound | C8 score (inhibition of GSK3β human) (GSK3B (h)) | C4 score (inhibition of EGFR human) (EGFR (h)) | C9 score (inhibition of Lck human) (Lck (h)) | C4 score (inhibition of Fes human) (Fes (h)) | C3 score (inhibition of cSRC human) (cSRC (h)) | C10 score (inhibition of Lyn human) (Lyn (h)) | C11 score (inhibition of Yes human) (Yes (h)) | C2 score (inhibition of CSK human) (CSK (h)) | further results
1 | – | – | – | – | – | 1H,7H-12,8-metheno-6,2-nitrilo-13,1,5,7,17,20-benzoxapentaazacyclotricosine-3-carbonitrile, 24-chloro-14,15,16,17,18,19,20,21-octahydro-11-methoxy-20-methyl-18-oxo- [Compound 33] | 2 (Score 2=30-60% inhibition) | 3 (Score 3=60-80% inhibition) | 3 (Score 3=60-80% inhibition) | 2 (Score 2=30-60% inhibition) | 4 (Score 4=>80% inhibition) | 4 (Score 4=>80% inhibition) | 4 (Score 4=>80% inhibition) | – | C6 score (inhibition of Flt3 human) (Flt3 (h)): 4 (Score 4=>80% inhibition); C1 score (inhibition of Abl human) (Abl (h)): 3 (Score 3=60-80% inhibition)
2 | 10 to 30% | 30 to 60% | 10 to 30% | 10 to 30% | – | N#Cc1cnc2nc1Nc1cccc(c1)OCCNC(=O)c1cccc(c1)N2 [Compound 20, 14-oxa-2,4,8,17,25-pentaazatetracyclo[17.3.1.1~3,7~.1~9,13~]pentacosa-1(23),3,5,7(25),9,11,13(24),19,21-nonaene-6-carbonitrile, 18-oxo-] | – | – | – | – | – | – | – | – | inhibition at 1 µM (GSK3B (h)): 60 to 80%; inhibition at 1 µM (EGFR (h); read-out: C4 score (inhibition of EGFR human)): 10 to 30%; inhibition at 1 µM (Fes (h)): 10 to 30%; inhibition at 1 µM (Abl (h)): 10 to 30%
3 | 10 to 30% | 30 to 60% | 10 to 30% | 10 to 30% | 10 to 30% | O=C1NCCCCCOc2cccc(c2)Nc2ccnc(n2)Nc2cccc1c2 [Compound 22, 14-oxa-2,4,8,20,28-pentaazatetracyclo[20.3.1.1~3,7~.1~9,13~]octacosa-1(26),3,5,7(28),9,11,13(27),22,24-nonaen-21-one] | – | – | – | – | – | – | – | – | inhibition at 1 µM (Lck (h)): 10 to 30%; inhibition at 1 µM (Fes (h)): 10 to 30%; inhibition at 1 µM (Abl (h)): 10 to 30%; inhibition at 1 µM (Lyn (h)): 10 to 30%
4 | – | – | – | – | – | COc1ccc2cc1OCCCCCCCCOc1ccc(Br)cc1Nc1cc(ncn1)N2 [Compound 38, 1H,7H-2,6: 12,8-dimetheno-13,22,1,3,5,7-benzodioxatetraazacyclotetracosine, 25-bromo-14,15,16,17,18,19,20,21-octahydro-11-methoxy-] | 1 (Score 1=10-30% inhibition) | 3 (Score 3=60-80% inhibition) | – | – | 1 (Score 1=10-30% inhibition) | 1 (Score 1=10-30% inhibition) | 1 (Score 1=10-30% inhibition) | 1 (Score 1=10-30% inhibition) | C7 score (inhibition of Fms human) (Fms (h)): 2 (Score 2=30-60% inhibition)
5 | – | – | – | – | – | COc1ccc2cc1OCCCCCCCCCOc1ccc(Cl)cc1Nc1cc(ncn1)N2 [Compound 39, 1H,7H-2,6: 12,8-dimetheno-14H-13,23,1,3,5,7-benzodioxatetraazacyclopentacosine, 26-chloro-15,16,17,18,19,20,21,22-octahydro-11-methoxy-] | 1 (Score 1=10-30% inhibition) | – | 1 (Score 1=10-30% inhibition) | 1 (Score 1=10-30% inhibition) | – | – | – | 1 (Score 1=10-30% inhibition) | C7 score (inhibition of Fms human) (Fms (h)): 1 (Score 1=10-30% inhibition)
6 | – | 10 to 30% | 30 to 60% | – | 60 to 80% | O=C1CCCCNC(=O)c2cccc(c2)Nc2cc(ncn2)Nc2cccc(c2)CN1 [Compound 58, 2,4,6,8,15,21-hexaazatetracyclo[21.3.1.1~3,7~.1~9,13~]nonacosa-1(27),3,5,7(29),9,11,13(28),23,25-nonaene-14,20-dione] | – | – | – | – | – | – | – | – | inhibition at 1 µM (Lyn (h)): 10 to 30%
7 | – | – | – | – | – | Cl.Cl.O=C1CNC(=O)Cc2ccc(Cl)cc2Nc2cc(ncn2)Nc2ccc(OCCCN3CCOCC3)c(c2)OCCN1 [Compound 107, 1H,7H-6,2:8,12-dimetheno-13,1,3,5,7,16,19-benzoxahexaazacyclotricosine-17,20(14H)-dione, 24-chloro-15,16,18,19,21-pentahydro-11-[3-(4-morpholinyl)propoxy]-, hydrochloric acid salt (1:2)] | – | 4 (Score 4=>80% inhibition) | 4 (Score 4=>80% inhibition) | 4 (Score 4=>80% inhibition) | 4 (Score 4=>80% inhibition) | 4 (Score 4=>80% inhibition) | 4 (Score 4=>80% inhibition) | 3 (Score 3=60-80% inhibition) | C1 score (inhibition of Abl human) (Abl (h)): 4 (Score 4=>80% inhibition)

Row | Compound | inhibition at 1 µM (cSRC (h)) | inhibition at 1 µM (Flt3 (h)) | inhibition at 1 µM (Fms (h)) | inhibition at 1 µM (Yes (h)) | inhibition at 1 µM (CSK (h)) | C8 score (inhibition of GSK3β human) (GSK3B (h)) | C4 score (inhibition of EGFR human) (EGFR (h)) | C9 score (inhibition of Lck human) (Lck (h)) | C4 score (inhibition of Fes human) (Fes (h)) | C3 score (inhibition of cSRC human) (cSRC (h)) | C10 score (inhibition of Lyn human) (Lyn (h)) | C11 score (inhibition of Yes human) (Yes (h)) | C2 score (inhibition of CSK human) (CSK (h)) | further results
8 | O=C1COc2cccc(c2)Nc2cc(ncn2)Nc2cccc(c2)CN2CCN1CC2 [Compound 42, 20-oxa-1,8,10,12,14,23-hexaazapentacyclo[21.2.2.1~3,7~.1~9,13~.1~15,19~]triaconta-3,5,7(30),9,11,13(29),15,17,19(28)-nonaen-22-one] | 10 to 30% | 30 to 60% | 30 to 60% | 60 to 80% | 30 to 60% | – | – | – | – | – | – | – | – | inhibition at 1 µM (GSK3B (h)): 10 to 30%; inhibition at 1 µM (Lck (h)): 30 to 60%
